For data set [1], the system named is p-STAT3, p-AKT, p-ERK and ER-α. Kind of data set: Western blot of cell signaling molecules in HEC-1A cells. The data set is classed as cell-based, Human. Conditions: 24 h, single agents at various concentrations, combination 75 μM each. Here is the method:
(§1) Western blot analysis. Western blots were performed as described previously^55,56 Cells were grown in complete medium overnight and treated with DMSO or drugs at various concentrations for 24 hrs. Cells were washed in cold PBS and lysed in RIPA lysis buffer (Thermo Scientific) containing Halt protease and phosphatase inhibitors (Thermo Scientific). Proteins were quantified using BCA protein assay reagent (Thermo Scientific). Equal amounts of protein were separated by SDS-polyacrylamide gel electrophoresis, transferred to polyvinylidene fluoride membranes and incubated with total and phosphorylated protein-specific antibodies. Binding of the primary antibody was detected using a horseradish peroxidase (HRP)-conjugated secondary antibody and chemiluminescent substrates (Thermo Scientific).

The subject of data set [2] is HEC-1A xenograft. Kind of data set: HEC-1A xenograft mouse model. The following applies: oral gavage daily, 5 weeks; Pterostilbene 30 mg/kg, megestrol acetate 10 mg/kg, or both; versus vehicle. The data set is classed as in vivo, nude mice. How it is done:
Animal models. All animal studies were carried out under protocols approved by the Institutional Animal Care and Use Committee (IACUC) at City of Hope in accordance with all applicable federal, state, and local requirements and institutional guidelines. HEC-1A cells (2×10^6 in 100 μl) were inoculated subcutaneously into the right flank of 6- to 8-week-old female nude mice. Once the tumors were palpable, animals were randomized into groups of 10 to achieve an equal distribution of tumor sizes in all treatment groups. Mice were then treated by oral gavage daily with vehicle, Pterostilbene (30 mg/kg), megestrol acetate (10 mg/kg), or a combination of both agents. The doses for these two drugs were chosen based on previously published studies. Tumor volumes were assessed using calipers twice a week. Tumor volumes were determined using the formula (Width)^2×Length×0.52. Body weight was monitored weekly as an indicator of drug-induced toxicity and overall health of the mice.
Statistical analysis. Data are presented as mean±S.D. Student's t-test was used to compare the means of two groups. All the experiments were repeated 2 to 4 times. P<0.05 was considered statistically significant.

The test system of data set [3] is ECC-1 cells. Kind of data set: Cell viability assay (MTS / acid phosphatase), combination index by Chou-Talalay. The following applies: Homo sapiens, ECC-1, read-out: IC50 (concentration for 50% growth inhibition), pterostilbene alone, 48 h, one range printed for both cell lines. In kind it is cell-based. Here is the method: (§2) Cell Culture. Human endometrial cancer cell lines HEC-1A and ECC-1 cells were from American Type Culture Collection (Rockville, Md.). […] All cells were grown in 5% (v/v) CO2 at 37° C.
(§3) Cell viability assays. Cells (4000 per well) were plated in 96-well plate format in 100 μl growth medium. Cells were treated with DMSO or drugs the next day at the indicated concentrations and incubated for an additional 2-3 days. Viable cells were determined either by the MTS assay (Promega, Madison, Wis., USA) or the acid phosphatase assay^53,54. For the MTS assay, 25 μl MTS solution was added directly into each well according to the manufacturer's instructions. For the acid phosphatase assay, all the media was removed and p-nitrophenyl phosphate substrate (10 mM 100 μl) was added into each well and incubated at 37° C. for 45 mins. […] The IC50 was determined using the Calcusyn software (Biosoft, Ferguson, Mo.).
(§4) Determination of combination index (CI). The combination index (CI) was determined using the Chou-Talalay method^37 using the Calcusyn software (Biosoft, MO).

The test system of data set [4] is HEC-1A cells. Described as above. In kind it is cell-based. The following applies: Homo sapiens, read-out: IC50 (concentration for 50% growth inhibition), pterostilbene alone, 48 h, one range printed for both cell lines. Here is the method: as §2, §3, §4
For data set [5] the following is noted: recent clinical trial; cited from earlier work.
For data set [6] the following is noted: compared to Resveratrol; cited from earlier work.
Data set [7] has as its system cell survival molecules and cell cycle molecules (caspase 3, PARP, BCL-2, BCL-xl, cyclin D1, cyclin B1, CDK4). Kind of data set: Western blot of cell survival and cell cycle molecules in HEC-1A cells. The following applies: 24 h, single agents at various concentrations, combination 75 μM each. In kind it is cell-based, Human. Here is the method: as §1
Data set [8] concerns advanced stage/recurrent endometrial cancer. Conditions: advanced stage / metastatic and recurrent endometrial cancer patients, cited from earlier work.

Where two headings read alike, the source gives them in different places.

For `COc1cc(/C=C/c2ccc(O)cc2)cc(OC)c1` [pterostilbene], in data set [1], the ER expression entry is given as “slightly decreased”; the “Expression of p-ERK1/2” value is on record as “no significant effect”; the “Expression of p-STAT3 and p-AKT” value was “no significant effect”. Besides, the “Tumor growth reduction (tumor volume and tumor weight)” value in data set [2] was “non-significant”. Moreover, the IC50 in data set [3] lay in the range of 72 to 78 µM. In data set [4], the IC50 lay in the range of 72 to 78 µM. Further, the “Dose generally safe for use in humans” value in data set [5] is reported as “up to 250 mg/day”. In data set [6], the Bioavailability entry was “superior bioavailability as compared to Resveratrol”. For the same molecule, in data set [7], the “Cleavage of caspase 3” value is listed as “increased cleavage”; the “Expression of BCL-2 and BCL-xl” value is “decrease”; the “Expression of cyclin D1, cyclin B1 and CDK4” value was “inhibited”.

As to megestrol acetate [reference compound], in data set [1], the ER expression result is given as “did not significantly alter”; the “Expression of p-ERK1/2” value is listed as “did not significantly alter”; the “Expression of p-STAT3 and p-AKT” value is “did not significantly alter”. In data set [2], the “Tumor growth reduction (tumor volume and tumor weight)” value is on record as “non-significant”. Besides, the Response rate in data set [8] is 20-30%. For the same molecule, the Response rate in data set [8] (listed as MA) is recorded as 25-30%. In addition, in data set [7], the “Cleavage of caspase 3” value is reported as “little effect”; the “Expression of BCL-2 and BCL-xl” value is on record as “little effect”; the “Expression of cyclin D1, cyclin B1 and CDK4” value is recorded as “little impact”.

Source of the values: patent US11389460B2, “Methods and compositions for treating endometrial cancer” (City of Hope, priority 2017, dated 2022).
